The text below walks through data of patent US6555582B1, “Eye treatments using synthetic thyroid hormone compositions” (The Regents of the University of California, priority 1996, dated 2003).

Read-outs that look alike come from different tables or passages of the source.

The test system of assay [1] is HTM cells. Conditions: for reduction in HA secretion: T3-supplemented vs T3-stripped media (No Tx).
Assay [2] has as its system HTM cells. Conditions: 10^−7 M, non-confluent cultures, serum-free, day 10, vs controls lacking T3.
In assay [3] the test system is CD44E. Conditions: HTM cells exposed to supplemental T3 for 18 hours.
Method: (§1) To investigate whether CD44 receptors are expressed by HTM cells, four CD44 isoforms can be measured using RT-PCR analysis with probes for CD44s, CD44E, CD44-v1 and CD44-v3. […] RNA was made using RNA TrackTM (Biotecx, Friendswood, Tex.). The RNA was used as a template for the first strand synthesis of cDNA in a reaction mixture containing 1000 U Moloney Murine Leukemia Virus Reverse Transcriptase (BRL, Gaithersburg, Md.), 50 mM random hexamer primer, 50 mM Tris-HCl (pH 8.3), 75 mM KCl, 10 mM dithiothreitol, 3 mM MgC12, 0.5 mM each of dGTP, dATP, dTTP and dCTP in 60 ul total volume. The cDNA reactions were carried out at 37° C. for 90 min, and then diluted 1:3 or 1:7 in water, pretreated with DEPC. Oligonucleotide primers were diluted to 40 μM in water.
(§2) For RT-PCR, a modified hot start method was used. A quantity of 3-5 μl of cDNA was added to 30 μl of a master mix containing 0.8 μl of each primer, 17 mM Tris-HCI (pH 8.3) and 80 mM KCI. Water was added to the cDNA reactions to a final volume of 40 μl. All reactions were overlaid with light mineral oil and heated to 99° C. After 10 min the reactions were cooled to 94° C. and a 10 μl volume containing 7 mM MgCI2, 1 mM each of dATP, dTTP, dGTP and dCTP, and 1.2 U Taq Polymerase (Perkin-Elmer Cetus, Branchburg, N.J.) was added directly through the oil overlay. […]
The subject of assay [4] is CD44-v 3. To be noted: HTM cells exposed to supplemental T3 for 18 hours.
Method: as §1, §2
The subject of assay [5] is Normal pigmented Dutch rabbits.
For assay [6], the system named is HTM cells. Conditions: 10^−7M.
Method: The assay system visualizes the cell's extracellular matrix by taking advantage of its ability to exclude added formalized red blood cells from an area around the cell. Proteoglycan monomer and HA are added to the cells in excess as pericellular matrix assembly is observed by microscopy.
HTM cells were plated on 35-mm dishes at a density of 1×10^4 cells per plate. […] For exogenous matrix assembly, cells were then incubated for 3 hours at 37° C. with 3.0 mg/ml of aggregating proteoglycan monomer (purified from rat chondrosarcoma tumor (Ref. 1)) and 15 μg/ml of hyaluronan (grade 1, Sigma Chemical Co., St. Louis, Mo.). The medium was removed and 0.75 ml of a suspension of formaldehyde fixed red blood cells (1×10^8 cells/ml) in phosphate buffered saline with 0.1% bovine serum albumin was added to each well of cells. After 10 minutes the cells and extracellular matrices (ECMs) were observed visualized by phase contrast microscopy (REF 2, 3). The cell matrices were categorized into one of three groups. Cells having no coats have no visible ECM. Cells having small coats have a visible ECM that extends less than the width of the cell's nucleus out from the cell's plasma membrane. Cells having large coats have a visible ECM that extends greater than the width of the cell's nucleus out from the cell's plasma membrane.

Turning to 3,3′-5-triiodo-L-thyronine [T3], the “fold reduction in secreted HA concentration” value in assay [1] (10^−7 M, confluent cells, day 5, vs control cultures) worked out at 2.95 fold. For the same substance, the “reduction in HA secretion” value in assay [1] (day 2, FIG. 1) is reported as 57%; in assay [1] (day 4, FIG. 1) it was 66%. Also, in assay [1] (cultured HTM cells, FIG. 2), the “T3 concentration of maximal inhibition of HA production” value is recorded as 10^−7-10^−6 M. The “reduction of HA concentration in the media, non-confluent vs confluent treated cells” value in assay [1] (non-confluent (less than 75% confluent) cells) is “even greater reduction”. In assay [1] (read-out: half maximal concentration for reduction of HA concentration, confluent cells, dose response curve FIG. 2), the EC50 is approximately 5 nM. In assay [2], the “fold increase in secreted hyaluronidase activity” value amounted to 1.9 fold. Also, the “expression of CD44E isoform” value in assay [3] was “dramatic reduction”. In assay [4], the “expression of CD44-v 3 isoform” value was “dramatic reduction”. The “decrease in IOP within three weeks of administration” value in assay [5] (five rabbits) was “at least some detectable decrease in IOP”. In addition, the “largest decrease in IOP after three weeks of T3 administration” value in assay [5] (one rabbit) came out at 25%. Besides, the entries for the “fold greater number of cells with no coats than cells grown in the absence of T3” value in assay [6] (2 days) and in assay [6] (4 days) were approximately 2 fold and “more than 4 fold”, respectively.
